Ends that are not written are not given here.
Key:
human erythrocytes = assay: Hemolysis assay on human whole blood; assay type: cell-based
Protocol: Hemolysis Assay. Hemolytic activity was determined on human whole blood. Freshly obtained whole blood was washed 3× in PBS and resuspended in PBS at its original volume containing peptides at indicated concentrations. Samples were incubated at 37° C. for 1.5 to 3 h, and hemolysis determined by centrifuging at 300 g and measurement of the absorbance of the supernatant at 578 nm. Hemolytic activity of each peptide was expressed as the percentage of total hemoglobin released compared to that released by incubating with 0.1% Triton X-100.

[1] = tested on: enteroinvasive E. coli 029; assay: Radial diffusion assay against E. coli 029; assay type: cell-based; details: for Action against E. coli compared to LL-37: synthetic peptides
Protocol: (§1) Antimicrobial assays. For screening of antimicrobial activity of HPLC fractions, radial diffusion assay was used. Lyophilized HPLC fractions were dissolved in DW (GibcoBRL, Grand Island, N.Y.), and tested against Staphylococcus aureus mprF. Thin plates (1 mm) of 1% agarose in 0.5% tryptone containing approximately […] of S. aureus mprF were used. 1 mm wells were punched in the plates and […] of samples dissolved in tissue culture grade sterile water were loaded in each well.
(§2) As a positive control, synthetic LL-37 was applied to separate wells. After incubation at 37° C. overnight, the inhibition zones were recorded by CCD camera and diameters measured. To evaluate antimicrobial activity against wild-type S. aureus (clinical isolate), and enteroinvasive E. coli 029, both radial diffusion and solution killing assays were done. Radial diffusion assays were done as described for S. aureus mprF. Solution killing was done in 10% TSB in 10 mM PB (TSB=30 gm/L Tryptic Soy Broth, Sigma, St Louis Mo.; 20×PB=27.6 g/L NaH2PO4-H2O, 53.65 g/L Na2HPO4-7H2O, pH 7.4). Bacteria in log-phase growth were suspended to 1×10^6 cells/ml, peptide added and incubated at 37° C. for 2 hr. Bacteria were then plated on TSB agar (TSB, Bactoagar 13 g/L, Becton Dickinson, Sparks Md.) for direct colony count and determination of CFU.

[2] = tested on: wild-type S. aureus (clinical isolate); assay: Radial diffusion assay against wild-type S. aureus; assay type: cell-based, Staphylococcus aureus; details: for Action against wild-type S. aureus compared to LL-37: synthetic peptides
Protocol: as §1, §2

C. albicans ATCC 14053 = assay: Liquid assay against C. albicans (minimum fungicide concentration); assay type: cell-based, Candida albicans; details: for Fungicidal activity against Candida albicans compared to LL-37: synthetic peptides
Protocol: (§3) Activity against Group A Streptococcus (NZ131) was done only in solution assay as described. To evaluate antimicrobial activity in high salt conditions, solution assay was done in 10% TSB/10 mM PBS with several salt concentrations (concentration of NaCl; 10, 50, 100, 150, 300, 500 mM). Action against the C. albicans was determined in Dixon medium (0.6% Peptone, 4% Malt Extract, 1% Glucose, 0.1% Ox Bile, 1% Tween-80) in sterile 96-well microtiter plates (Corning Inc., Corning, N.Y.) at a final volume of […]. The assay mixtures contained 1-2.5×10^4 […] freshly grown Candida, 20% Dixon medium, 0.6 mM phosphate buffer pH 7, and […] chloramphenicol. Microtiter plates were incubated at 37° C. for 24 h with peptides, then plated on Dixon agar to determine the MFC (minimum fungicide concentration).

[3] = tested on: Group A Streptococcus (NZ131); assay type: cell-based
Protocol: as §2, §3

[4] = tested on: Staphylococcus aureus mprF; assay: Radial diffusion assay against S. aureus mprF; assay type: cell-based
Protocol: as §1, §2

Staphylococcus aureus = assay: S. aureus growth inhibition (turbidity OD600) with or without carbonate; assay type: cell-based; details: for Effect of NaHCO3 on minimal inhibitory concentration (MIC) against Staph aureus: 20% TSB, 1 mM NaH2PO4, 50 mM NaHCO3, pH 7.4; for Susceptibility of S. aureus: 16 uM peptide
Protocol: Carbonate was identified as the antimicrobial enhancing factor in mammalian tissue culture media via serial deletion of Minimal Essential Media (MEM) components. Staphylococcus aureus was cultured in 20% Tryptic Soy Broth (TSB), 10% Fetal Bovine Serum (FBS) and 70% of various media or media components with, or without, 32 μM LL-37 to assess which components could increase antimicrobial activity. MEM buffers are 2200 mg/L NaHCO3, 140 mg/L NaH2PO4 and 6800 mg/L NaCl. MEM salts are 200 mg/L CaCl2, 400 mg/L KCl, 98 mg/L MgSO4. All solutions were adjusted to pH 7.4. Bacterial growth was measured as the change in turbidity at OD600 and percent inhibition was determined by comparing bacterial growth in the presence of peptide to that in the absence of peptide. […]
Inhibition of Staph aureus growth in the presence of various concentrations of human (LL-37), murine (CRAMP) and porcine (PR-39). Cathelicidin antimicrobial peptides was measured in 20% TSB, 1 mM NaH2PO4, with, or without, 50 mM NaHCO3 at pH 7.4. […]

S. aureus = assay: Release of cytoplasmic beta-galactosidase (membrane disruption); assay type: cell-based; details: with carbonate versus without
Text: Release of cytoplasmic expressed beta-galactosidase was measure from bacteria with and without the addition of NaHCO3.

Salmonella = Salmonella susceptibility to CRAMP; assay type: cell-based; details: 16 uM peptide; without NaHCO3
Group B Strep (GBS) = assay: Group B Strep susceptibility to CRAMP; assay type: cell-based; details: 16 uM peptide; without NaHCO3
E. coli = E. coli susceptibility to CRAMP with or without NaHCO3; assay type: cell-based; details: 16 uM peptide
antigen presentation = assay: Antigen presentation in vitro; assay type: cell-based

Substance	% hemolysis (human erythrocytes)	Radial Diffusion Assay minimal inhibitory concentration (MIC), E. coli (029) [1]	Radial Diffusion Assay minimal inhibitory concentration (MIC), S. aureus (wt) [2]	Liquid Assay minimal concentration required to kill C. albicans ATCC 14053 (C. albicans ATCC 14053)	Fungicidal activity against Candida albicans compared to LL-37 (C. albicans ATCC 14053)	Liquid Assay minimal concentration required to kill GAS (NZ131) [3]	Radial Diffusion Assay minimal inhibitory concentration (MIC), S. aurus MprF [4]	other results
RKSKEKIGKEFKRIVQRIKDFLRNLVPRTES (listed as Homo sapiens) [RK-31, cathelicidin peptide generated from LL-37]	6%	8 μm	16 μm	4 μm	increased fungicidal activity	8 μm	8 μm	Action against E. coli compared to LL-37 [1]: greatly increased action; Action against wild-type S. aureus compared to LL-37 [2]: greatly increased action
PR-39: porcine cathelicidin antimicrobial peptide (RRRPRPPYLPRPRPPPFFPPRLPPRIPPGFPPRFPPRFP; UniProt P80054 131-169, looked up)								Effect of NaHCO3 on minimal inhibitory concentration (MIC) against Staph aureus (Staphylococcus aureus): greatly reduced
Polymyxin B								Leakage of cytoplasmic protein (beta-galactosidase) from S. aureus (S. aureus): greater leakage
KSKEKIGKEFKRIVQRIKDFLRNLVPRTES [KS-30]	.23%	8 μm	16 μm	2 μm	increased fungicidal activity	4 μm	8 μm	Action against E. coli compared to LL-37 [1]: greatly increased action; Action against wild-type S. aureus compared to LL-37 [2]: greatly increased action
SSLLEKGLDGAKKAVGGLGKLGKDAVEDLESVGKGAVHDVKDVLDSV (listed as Homo sapiens) [DCD, dermcidin antimicrobial peptide of human sweat, reference compound]		>64 μm	>64 μm	>32 μm		>64 μm	>64 μm	
KRIVQRIKDFLRNLVPRTES (listed as Homo sapiens) [KR-20, 20 amino acid cathelicidin derivative]	0%	>64 μm	>64 μm	10 μm	increased fungicidal activity	4 μm	16 μm	
CRAMP								Susceptibility of Salmonella (Salmonella): susceptible; Susceptibility of Group B Strep (GBS) (Group B Strep (GBS)): susceptible; Susceptibility of E. coli (E. coli; with 50 mM NaHCO3): susceptible; Susceptibility of E. coli (E. coli; without 50 mM NaHCO3): resistant; Susceptibility of S. aureus (Staphylococcus aureus; with 50 mM NaHCO3): susceptible; Susceptibility of S. aureus (Staphylococcus aureus; without 50 mM NaHCO3): resistant; Effect of NaHCO3 on minimal inhibitory concentration (MIC) against Staph aureus (Staphylococcus aureus): greatly reduced; Antigen presentation in vitro (antigen presentation): inhibits antigen presentation

From patent publication US7776823B2, “Human cathelicidin antimicrobial peptides” (priority 2003, dated 2010)
